# Measurements as given in US6737383B1, “Herbicidal oxadiazolidines” (priority 1999, dated 2004).
# Experiments:
# wild oat = assay: Test B pre/postemergence wild oat; format: in vivo, Avena fatua
# Text: (§1) Seeds of bedstraw (Galium aparine), blackgrass (Alopecurus myosuroides), surinam grass (Brachiaria decumbens), cocklebur (Xanthium strumarium), corn (Zea mays), crabgrass (Digitaria sanguinalis), giant foxtail (Setaria faberii), morningglory (Ipomoea hederacea), pigweed (Amaranthus retroflexus), rape (Brassica napus), soybean (Glycine max), sugar beet (Beta vulgaris), velvetleaf (Abutilon theophrasti), wheat (Triticum aestivum), wild oat (Avena fatua) and purple nutsedge (Cyperus rotundus) tubers were planted and treated preemnergence with test chemicals formulated in a non-phytotoxic solvent mixture which included a surfactant.
# (§2) At the same time, these crop and weed species were also treated with postemergence applications of test chemicals formulated in the same manner. Plants ranged in height from 2 to 18 cm (1- to 4-leaf stage) for postemergence treatments. Plant species in the flood test consisted of rice (Oryza sativa), smallflower flatsedge (Cyperus difformis), duck salad (Heteranthera limosa) and bamyardgrass (Echinochloa crus-galli) grown to the 2-leaf stage for testing. Treated plants and controls were maintained in a greenhouse for twelve to sixteen days, after which all species were compared to controls and visually evaluated. Plant response ratings, summarized in Table B, are based on a scale of 0 to 10 where 0 is no effect and 10 is complete control. A dash (−) response means no test result.
# sugar beet = assay: Test B pre/postemergence sugar beet; format: in vivo, Beta vulgaris
# Text: as §1, §2
# crabgrass = assay: Test B pre/postemergence crabgrass; format: in vivo, Digitaria sanguinalis
# Text: as §1, §2
# giant foxtail = assay: Test B pre/postemergence giant foxtail; format: in vivo, Setaria faberii
# Text: as §1, §2
# blackgrass = assay: Test B pre/postemergence blackgrass; format: in vivo, Alopecurus myosuroides
# Text: as §1, §2
# cocklebur = assay: Test B pre/postemergence cocklebur; format: in vivo, Xanthium strumarium
# Text: as §1, §2
# pigweed = assay: Test B pre/postemergence pigweed; format: in vivo, Amaranthus retroflexus
# Text: as §1, §2
# velvetleaf = assay: Test B pre/postemergence velvetleaf; format: in vivo, Abutilon theophrasti
# Text: as §1, §2
# wheat = assay: Test B pre/postemergence wheat; format: in vivo, Triticum aestivum
# Text: as §1, §2
# rape = assay: Test B pre/postemergence rape; format: in vivo, Brassica napus
# Text: as §1, §2
# corn = assay: Test B pre/postemergence corn; format: in vivo, Zea mays
# Text: as §1, §2
# morningglory = assay: Test B pre/postemergence morningglory; format: in vivo, Ipomoea hederacea
# Outline: (§3)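 Herbicidal effect was estimated by eye on a ten-point control scale after plants spent twelve to sixteen days in a greenhouse following soil or foliar treatment. Foliar sprays targeted plants at one to four leaves; all doses were formulated in a non-phytotoxic solvent with surfactant.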
# bedstraw = assay: Test B pre/postemergence bedstraw; format: in vivo, Galium aparine; conditions: Preemergence
# Text: as §1, §2
# purple nutsedge = assay: Test B pre/postemergence purple nutsedge; format: in vivo, Cyperus rotundus
# Outline: as §3
# surinam grass = assay: Test B pre/postemergence surinam grass; format: in vivo, Brachiaria decumbens
# Text: as §1, §2
# soybean = assay: Test B pre/postemergence soybean; format: in vivo, Glycine max
# Outline: as §3
# [1] = Postemergence, Rate 62 g/ha, scale 0 to 10, 0 is no effect, 10 is complete control
# [2] = Postemergence, Rate 125 g/ha, scale of 0 to 10 where 0 is no effect and 10 is complete control
# [3] = Preemergence, Rate 62 g/ha, scale of 0 to 10 where 0 is no effect and 10 is complete control
# [4] = Preemergence, Rate 125 g/ha, scale of 0 to 10 where 0 is no effect and 10 is complete control
# [5] = Preemergence, Rate 250 g/ha, scale 0 (no effect) to 10 (complete control)
# [6] = Rate 250 g/ha, Postemergence, scale 0 to 10, 0 is no effect, 10 is complete control
# [7] = Rate 500 g/ha, Postemergence, scale 0 to 10, 0 is no effect, 10 is complete control
# [8] = Preemergence, Rate 500 g/ha, scale of 0 to 10 where 0 is no effect and 10 is complete control
smiles,measurement,setting,value
CC(C)N(C(=O)n1oc(=O)n(CF)c1=O)c1ccc(F)cc1 [Compound 709],"Plant response rating, Wild oats",wild oat; [1],0
same,Wild oats plant response rating,wild oat; [2],0
same,Wild oats plant response rating,wild oat; [3],0
same,"Plant response rating, Wild oats",wild oat; [4],0
same,Wild oats plant response rating,wild oat; [5],0
same,Wild oats plant response rating,wild oat; [6],0
same,Wild oats plant response rating,wild oat; [7],0
same,"Plant response rating, Sugarbeets",sugar beet; [1],0
same,Sugarbeets plant response rating,sugar beet; [2],0
same,Sugarbeets plant response rating,sugar beet; [3],0
same,"Plant response rating, Sugarbeets",sugar beet; [4],0
same,Sugarbeets plant response rating,sugar beet; [5],0
same,Sugarbeets plant response rating,sugar beet; [6],0
same,Sugarbeets plant response rating,sugar beet; [7],0
same,"Plant response rating, Crabgrass",crabgrass; [1],2
same,Crabgrass plant response rating,crabgrass; [2],3
same,Crabgrass plant response rating,crabgrass; [3],2
same,"Plant response rating, Crabgrass",crabgrass; [4],3
same,Crabgrass plant response rating,crabgrass; [5],7
same,Crabgrass plant response rating,crabgrass; [6],6
same,Crabgrass plant response rating,crabgrass; [7],8
same,"Plant response rating, Giant foxtail",giant foxtail; [1],3
same,Giant foxtail plant response rating,giant foxtail; [2],4
same,Giant foxtail plant response rating,giant foxtail; [3],2
same,"Plant response rating, Giant foxtail",giant foxtail; [4],4
same,Giant foxtail plant response rating,giant foxtail; [5],7
same,Giant foxtail plant response rating,giant foxtail; [6],8
same,Giant foxtail plant response rating,giant foxtail; [7],9
same,"Plant response rating, Blackgrass",blackgrass; [1],0
same,Blackgrass plant response rating,blackgrass; [2],0
same,Blackgrass plant response rating,blackgrass; [3],0
same,"Plant response rating, Blackgrass",blackgrass; [4],0
same,Blackgrass plant response rating,blackgrass; [5],0
same,"Plant response rating, Blackgrass",blackgrass; [8],0
same,Blackgrass plant response rating,blackgrass; [6],0
same,Blackgrass plant response rating,blackgrass; [7],0
same,"Plant response rating, Cocklebur",cocklebur; [1],0
same,Cocklebur plant response rating,cocklebur; [2],0
same,Cocklebur plant response rating,cocklebur; [3],0
same,"Plant response rating, Cocklebur",cocklebur; [4],0
same,Cocklebur plant response rating,cocklebur; [5],0
same,"Plant response rating, Cocklebur",cocklebur; [8],0
same,Cocklebur plant response rating,cocklebur; [6],0
same,Cocklebur plant response rating,cocklebur; [7],3
same,"Plant response rating, Redroot pigweed",pigweed; [1],5
same,Redroot pigweed plant response rating,pigweed; [2],5
same,Redroot pigweed plant response rating,pigweed; [3],0
same,"Plant response rating, Redroot pigweed",pigweed; [4],0
same,Redroot pigweed plant response rating,pigweed; [5],5
same,Redroot pigweed plant response rating,pigweed; [6],8
same,Redroot pigweed plant response rating,pigweed; [7],8
same,"Plant response rating, Velvetleaf",velvetleaf; [1],4
same,Velvetleaf plant response rating,velvetleaf; [2],4
same,Velvetleaf plant response rating,velvetleaf; [3],0
same,"Plant response rating, Velvetleaf",velvetleaf; [4],0
same,Velvetleaf plant response rating,velvetleaf; [5],0
same,Velvetleaf plant response rating,velvetleaf; [6],4
same,Velvetleaf plant response rating,velvetleaf; [7],6
same,"Plant response rating, Wheat",wheat; [1],0
same,Wheat plant response rating,wheat; [2],0
same,Wheat plant response rating,wheat; [3],0
same,"Plant response rating, Wheat",wheat; [4],0
same,Wheat plant response rating,wheat; [5],0
same,Wheat plant response rating,wheat; [6],0
same,Wheat plant response rating,wheat; [7],0
same,"Plant response rating, Rape",rape; [1],0
same,Rape plant response rating,rape; [2],0
same,Rape plant response rating,rape; [3],0
same,"Plant response rating, Rape",rape; [4],0
same,Rape plant response rating,rape; [5],0
same,Rape plant response rating,rape; [6],0
same,Rape plant response rating,rape; [7],0
same,"Plant response rating, Corn",corn; [1],0
same,Corn plant response rating,corn; [2],0
same,Corn plant response rating,corn; [3],0
same,"Plant response rating, Corn",corn; [4],0
same,Corn plant response rating,corn; [5],0
same,Corn plant response rating,corn; [6],0
same,Corn plant response rating,corn; [7],0
same,Morningglory plant response rating,morningglory; [2],0
same,Morningglory plant response rating,morningglory; [3],0
same,"Plant response rating, Morningglory",morningglory; [4],0
same,Morningglory plant response rating,morningglory; [5],0
same,Morningglory plant response rating,morningglory; [6],2
same,Morningglory plant response rating,morningglory; [7],6
same,Bedstraw plant response rating,"bedstraw; Rate 62 g/ha, scale of 0 to 10 where 0 is no effect and 10 is complete control",0
same,"Plant response rating, Bedstraw","bedstraw; Rate 125 g/ha, scale of 0 to 10 where 0 is no effect and 10 is complete control",0
same,Bedstraw plant response rating,"bedstraw; Rate 250 g/ha, scale 0 (no effect) to 10 (complete control)",0
same,"Plant response rating, Bedstraw","bedstraw; Rate 500 g/ha, scale of 0 to 10 where 0 is no effect and 10 is complete control",0
same,"Plant response rating, Nutsedge",purple nutsedge; [1],0
same,Nutsedge plant response rating,purple nutsedge; [2],0
same,Nutsedge plant response rating,purple nutsedge; [3],0
same,"Plant response rating, Nutsedge",purple nutsedge; [4],0
same,Nutsedge plant response rating,purple nutsedge; [6],0
same,Nutsedge plant response rating,purple nutsedge; [7],6
same,"Plant response rating, B. signalgrass",surinam grass; [1],0
same,B. signalgrass plant response rating,surinam grass; [2],0
same,B. signalgrass plant response rating,surinam grass; [3],0
same,"Plant response rating, B. signalgrass",surinam grass; [4],0
same,B. signalgrass plant response rating,surinam grass; [5],0
same,"Plant response rating, B. signalgrass",surinam grass; [8],0
same,B. signalgrass plant response rating,surinam grass; [6],0
same,B. signalgrass plant response rating,surinam grass; [7],0
same,"Plant response rating, Soybean",soybean; [1],1
same,Soybean plant response rating,soybean; [2],3
same,Soybean plant response rating,soybean; [3],0
same,"Plant response rating, Soybean",soybean; [4],0
same,Soybean plant response rating,soybean; [5],0
same,Soybean plant response rating,soybean; [6],3
same,Soybean plant response rating,soybean; [7],4
